Assay results published in patent publication US11311565B2, “Synergistic nutritional compositions for promoting axonal regeneration” (CELAGENEX RESEARCH (INDIA) PVT. LTD., priority 2020, dated 2022).

Assays:
Format in all cases: in vivo, Swiss albino mice
[1] = system: GAP-43; assay: SCI animal study: fold increase in plasticity protein GAP-43; settings: animals subjected to SCI, 6 animals per group
Source text: (§1) The purpose of this study is to evaluate the effect of the test substance in Swiss albino rats.
(§2) No. of animals: 30 Animals (5 groups of 6 animals each)
(§3) Group 1 is placebo, Group 2 was given a standard treatment of antithrombotic, antiepileptic, anti-inflammatory and steroid protocol (methylprednisolone) and Group 3, Group 4 and Group 5 served as test substance. Animals were subjected to SCI and outcome measures were monitored.

[2] = system: BDNF; assay: SCI animal study: fold increase in plasticity protein BDNF; settings: animals subjected to SCI, 6 animals per group
Source text: as §1, §2, §3

[3] = system: NGF; assay: SCI animal study: fold increase in plasticity protein NGF; settings: animals subjected to SCI, 6 animals per group
Source text: as §1, §2, §3

[4] = system: NTF3; assay: SCI animal study: fold increase in plasticity protein NTF3; settings: animals subjected to SCI, 6 animals per group
Source text: as §1, §2, §3

[5] = system: animals subjected to SCI; assay: SCI animal study: improvement of limb movements; settings: baseline is 1
Source text: as §1, §2, §3

[6] = system: axons crossing denervated side; assay: SCI animal study: subjects with >1000 axons crossing denervated side; settings: animals subjected to SCI; % subjects
Source text: as §1, §2, §3
4. Subjects with >1000 axons crossing denervated side—as % subjects

## N=C(N)NCCCCN.O=S(=O)(O)O [Test II, Agmatine Sulphate]
[1]
  No. of fold increase in plasticity proteins from baseline: GAP-43: 3.44 fold
[2]
  No. of fold increase in plasticity proteins from baseline: BDNF: 2.44 fold
[3]
  No. of fold increase in plasticity proteins from baseline: NGF: 1.69 fold
[4]
  No. of fold increase in plasticity proteins from baseline: NTF3: 1.17 fold
[5]
  Percentage improvement of limb movements to baseline (Baseline as 1): 0.34
[6]
  percentage of subjects with >1000 axons crossing denervated side: 18%
